The values that follow come from US20260284214A1, “EXATECAN DERIVATIVE AND ANTIBODY-DRUG CONJUGATE THEREOF” (priority 2023, published 2026).

For one experiment, the system named is BxPC-3 cells. Put plainly: Cell inhibitory activity experiment of cytotoxic drug (CellTiter-Glo, 72 hours). It counts as cell-based, human. The conditions noted are these: Homo sapiens. How it is done: (§1) Human pancreatic adenocarcinoma cells BxPC-3 (ATCC, article number: CRL-1687) and human pharyngeal squamous cell carcinoma cells FaDu (ATCC, article number: HTB-43) were washed with PBS, then the cells were digested with 0.25% Trypsin-EDTA trypsin for about 3 minutes, and the digestion was terminated with a complete cell culture medium. The cells were centrifuged at 1000 rpm for 5 minutes, the supernatant was discarded, and the cells were resuspended with a complete cell culture medium, counted by a cell counter, and adjusted to a required density. Each well was added with 50 μL of the cell suspension according to 3000 cells per well, and the cell plate was placed into a 5% CO2 cell incubator at 37° C. to incubate the cells for 12-16 hours.
(§2) The cell plate was taken out of the incubator to observe a cell adhesion state, and after cell adhesion, each well was added with 50 μL of the sample (starting from 10 μM, diluted 5 times, 9 concentrations), shaken gently, and then placed into an incubator to incubate the cells for 72 hours. Each well was added with a Cell Titer-GLO™ (Promega, article number: G7572) working solution according to 100 μL/well and shaken gently to lyse the cells, and the plate was read on a microplate reader.
(§3) Data analysis: a graph was made by GraphPad Prism 7.0 software with a Log value of a sample concentration as an abscissa and Cytotoxicity % as an ordinate, and data were subjected to Nonlinear regression (curve fit) analysis to obtain an IC50 value of each compound.

Another experiment relates to FaDu cells. Described as above. It counts as cell-based, human. The following applies: Homo sapiens. As to the method:
as §1, §2, §3

For orientation: IC50 means the concentration that inhibits the measured activity by half. Higher therefore signals a need for much substance. Turning to `CC[C@@]1(O)C(=O)OCc2c1cc1n(c2=O)Cc2c-1nc1cc(F)c(C)c3c1c2[C@@H](NC(=O)OC1CNC1)CC3` [Example 21, azetidine-3-yl((1S,9S)-9-ethyl-5-fluoro-9-hydroxy-4-methyl-10,13-dioxo-2,3,9,10,13,15-hexahydro-1H,12H-benzo[de]pyrano[3′,4′:6,7]indolizino[1,2-b]quinolin-1-yl)carbamate], the IC50 in the experiment with BxPC-3 cells came out at 29.2 nM; with FaDu cells, 19.8 nM.
Turning to `CC[C@@]1(O)C(=O)OCc2c1cc1n(c2=O)Cc2c-1nc1cc(F)c(C)c3c1c2[C@@H](NC(=O)N(O)CCO)CC3` [Example 7, 3-((1S,9S)-9-ethyl-5-fluoro-9-hydroxy-4-methyl-10,13-dioxo-2,3,9,10,13,15-hexahydro-1H,12H-benzo[de]pyrano[3′,4′:6,7]indolizino[1,2-b]quinolin-1-yl)-1-hydroxy-1-(2-hydroxyethyl)urea], the results for the IC50 with BxPC-3 cells and in the experiment on FaDu cells were 0.76 nM and < 0.1 nM, respectively.
The corresponding values for `CC[C@@]1(O)C(=O)OCc2c1cc1n(c2=O)Cc2c-1nc1cc(F)c(C)c3c1c2[C@@H](NC(=O)N[C@H]1C[C@@H](N)C1)CC3` [Example 16] are 7.93 nM and 4.33 nM.
The corresponding values for `CC[C@@]1(O)C(=O)OCc2c1cc1n(c2=O)Cc2c-1nc1cc(F)c(C)c3c1c2[C@@H](NC(=O)O[C@H]1C[C@H](N)C1)CC3` [Example 20, (1R,3S)-3-aminocyclobutyl((1S,9S)-9-ethyl-5-fluoro-9-hydroxy-4-methyl-10,13-dioxo-2,3,9,10,13,15-hexahydro-1H,12H-benzo[de]pyrano[3′,4′:6,7]indolizino[1,2-b]quinolin-1-yl)carbamate] are 3.05 nM and 2 nM.
With `CC[C@@]1(O)C(=O)OCc2c1cc1n(c2=O)Cc2c-1nc1cc(F)c(C)c3c1c2[C@@H](NC(=O)N1C[C@@H](O)CO1)CC3` [Example 5, (R)—N-((1S,9S)-9-ethyl-5-fluoro-9-hydroxy-4-methyl-10,13-dioxo-2,3,9,10,13,15-hexahydro-1H,12H-benzo[de]pyrano[3′,4′:6,7]indolizino[1,2-b]quinolin-1-yl)-4-hydroxyisoxazoline-2-carboxamide], the IC50 in the experiment with BxPC-3 cells is < 0.1 nM; in the experiment on FaDu cells, 0.75 nM.
In the same order, the values of `CC[C@@]1(O)C(=O)OCc2c1cc1n(c2=O)Cc2c-1nc1cc(F)c(C)c3c1c2[C@@H](NC(=O)NC1CNC1)CC3` [Example 18, 1-(azetidin-3-yl)-3-((1S,9S)-9-ethyl-5-fluoro-9-hydroxy-4-methyl-10,13-dioxo-2,3,9,10,13,15-hexahydro-1H,12H-benzo[de]pyrano[3′,4′:6,7]indolizino[1,2-b]quinolin-1-yl)urea] are 40.8 nM and 16.9 nM.
In the same order, the values of `CC[C@@]1(O)C(=O)OCc2c1cc1n(c2=O)Cc2c-1nc1cc(F)c(C)c3c1c2[C@@H](NC(=O)N[C@H]1C[C@H](N)C1)CC3` [Example 17] are 4.04 nM and 2.26 nM.
In the same order, the values of `CC[C@@]1(O)C(=O)OCc2c1cc1n(c2=O)Cc2c-1nc1cc(F)c(C)c3c1c2[C@@H](NC(=O)N1C[C@H](O)CO1)CC3` [Example 4, (S)—N-((1S,9S)-9-ethyl-5-fluoro-9-hydroxy-4-methyl-10,13-dioxo-2,3,9,10,13,15-hexahydro-1H,12H-benzo[de]pyrano[3′,4′:6,7]indolizino[1,2-b]quinolin-1-yl)-4-hydroxyisoxazolidine-2-carboxamide] are 1.84 nM and 2.95 nM.
For `CC[C@@]1(O)C(=O)OCc2c1cc1n(c2=O)Cc2c-1nc1cc(F)c(C)c3c1c2[C@@H](NC(=O)N(CCO)OC)CC3` [Example 8, 3-((1S,9S)-9-ethyl-5-fluoro-9-hydroxy-4-methyl-10,13-dioxo-2,3,9,10,13,15-hexahydro-1H,12H-benzo[de]pyrano[3′,4′:6,7]indolizino[1,2-b]quinolin-1-yl)-1-(2-hydroxyethyl)-1-methoxyurea], the IC50 turned out to be 1.45 nM in the experiment on BxPC-3 cells and 0.13 nM in the experiment on FaDu cells.
With `CC[C@@]1(O)C(=O)OCc2c1cc1n(c2=O)Cc2c-1nc1cc(F)c(C)c3c1c2[C@@H](NC(=O)N(C#N)CCO)CC3` [Example 9, 1-cyano-3-((1S,9S)-9-ethyl-5-fluoro-9-hydroxy-4-methyl-10,13-dioxo-2,3,9,10,13,15-hexahydro-1H,12H-benzo[de]pyrano[3′,4′:6,7]indolizino[1,2-b]quinolin-1-yl)-1-(2-hydroxyethyl)urea], the figures for the concentration for half-maximal inhibition (IC50) with BxPC-3 cells and in the experiment on FaDu cells were 2.15 nM and 2.34 nM, respectively.
The corresponding values for `CC[C@@]1(O)C(=O)OCc2c1cc1n(c2=O)Cc2c-1nc1cc(F)c(C)c3c1c2[C@@H](NC(=O)N1CC[C@@H](O)C1)CC3` [Example 14, (R)—N-((1S,9S)-9-ethyl-5-fluoro-9-hydroxy-4-methyl-10,13-dioxo-2,3,9,10,13,15-hexahydro-1H,12H-benzo[de]pyrano[3′,4′:6,7]indolizino[1,2-b]quinolin-1-yl)-3-hydroxypyrrolidine-1-carboxamide] are 6.27 nM and 57.8 nM.
The corresponding values for `CC[C@@]1(O)C(=O)OCc2c1cc1n(c2=O)Cc2c-1nc1cc(F)c(C)c3c1c2[C@@H](NC(=O)N1CC[C@H](O)C1)CC3` [Example 13, (S)—N-((1S,9S)-9-ethyl-5-fluoro-9-hydroxy-4-methyl-10,13-dioxo-2,3,9,10,13,15-hexahydro-1H,12H-benzo[de]pyrano[3′,4′:6,7]indolizino[1,2-b]quinolin-1-yl)-3-hydroxypyrrolidine-1-carboxamide] are 2.49 nM and 36 nM.
The corresponding values for `CC[C@@]1(O)C(=O)OCc2c1cc1n(c2=O)Cc2c-1nc1cc(F)c(C)c3c1c2[C@@H](NC(=O)N(CC#N)CCO)CC3` [Example 1, 1-(cyanomethyl)-3-((1S,9S)-9-ethyl-5-fluoro-9-hydroxy-4-methyl-10,13-dioxo-2,3,9,10,13,15-hexahydro-1H,12H-benzo[de]pyrano[3′,4′:6,7]indolizino[1,2-b]quinoline-1-yl)-1-(2-hydroxyethyl)urea] are 8.27 nM and 6.68 nM.
As for `CC[C@@]1(O)C(=O)OCc2c1cc1n(c2=O)Cc2c-1nc1cc(F)c(C)c3c1c2[C@@H](NC(=O)O[C@H]1C[C@@H](N)C1)CC3` [Example 19, (1S,3R)-3-aminocyclobutyl((1S,9S)-9-ethyl-5-fluoro-9-hydroxy-4-methyl-10,13-dioxo-2,3,9,10,13,15-hexahydro-1H,12H-benzo[de]pyrano[3′,4′:6,7]indolizino[1,2-b]quinolin-1-yl)carbamate], the IC50 in the experiment with BxPC-3 cells came out at 3.69 nM; in the experiment on FaDu cells, 3.97 nM.
In the same order, the values of `CC[C@@]1(O)C(=O)OCc2c1cc1n(c2=O)Cc2c-1nc1cc(F)c(C)c3c1c2[C@@H](NC(=O)N1CC(O)C1)CC3` [Example 10, N-((1S,9S)-9-ethyl-5-fluoro-9-hydroxy-4-methyl-10,13-dioxo-2,3,9,10,13,15-hexahydro-1H,12H-benzo[de]pyrano[3′,4′:6,7]indolizino[1,2-b]quinolin-1-yl)-3-hydroxyazetidine-1-carboxamide] are 5.1 nM and 6.04 nM.
In the case of `CC[C@@]1(O)C(=O)OCc2c1cc1n(c2=O)Cc2c-1nc1cc(F)c(C)c3c1c2[C@@H](NC(=O)N[C@H]1C[C@H](O)C1)CC3` [Example 12, 1-((1S,9S)-9-ethyl-5-fluoro-9-hydroxy-4-methyl-10,13-dioxo-2,3,9,10,13,15-hexahydro-1H,12H-benzo[de]pyrano[3′,4′:6,7]indolizino[1,2-b]quinolin-1-yl)-3-((1r,3S)-3-hydroxycyclobutyl)urea], the IC50 was 5.77 nM in the experiment on BxPC-3 cells and 42 nM in the experiment on FaDu cells.
Take `CC[C@@]1(O)C(=O)OCc2c1cc1n(c2=O)Cc2c-1nc1cc(F)c(C)c3c1c2[C@@H](NC(=O)N1CC(N)C1)CC3` [Example 15, 3-amino-N-((1S,9S)-9-ethyl-5-fluoro-9-hydroxy-4-methyl-10,13-dioxo-2,3,9,10,13,15-hexahydro-1H,12H-benzo[de]pyrano[3′,4′:6,7]indolizino[1,2-b]quinolin-1-yl) azetidine-1-carboxamide]: the IC50 in the experiment on BxPC-3 cells was determined as 20.5 nM; with FaDu cells, 11.4 nM.
